Molecules are shown by their SMILES.

Among the data in patent US11253516B2, “N2,N4-diphenylpyrimidine-2,4-diamine derivative, method for preparing same, and pharmaceutical composition containing same as active ingredient for prevention or treatment of cancer” (Korea Research Institute of Chemical Technology, priority 2017, dated 2022) are IC50 values, retold here.

For one test, the target named is EGFR wt. (Homo sapiens (Human), UniProt P00533). The test is described as follows: HTRF enzyme assay, wild-type EGFR. The note with it: recombinant enzyme. Format: biochemical. The protocol:
(§1) The measurement of an activity on wild-type and EGFR mutation enzyme of the compound of the present invention was experimented by utilizing the HTRF system sold by Cisbio, as follow.
(§2) The composition of the assay buffer used in the activity measurement was 50 mM Tris-HCl pH 7.5, 100 mM NaCl, 7.5 mM MgCl2, 3 mM KCl, 0.01% Tween 20, 0.1% BSA, 1 mM DTT. The enzymatic reaction was carried out hereto by using the peptide substrate labeled with ATP of […] concentration and biotin of […] concentration. The analysis of an EGFR activity inhibitory effect of the compound was carried out in accordance with the analysis reaction recipe below.
(§3) Component 1: […] of EGFR wild-type or mutation enzyme
(§4) Component 2: […] of compound solution
(§5) Component 3: […] of peptide labeled with ATP and biotin
(§6) The enzymatic reaction was initiated by mixing Component 1 and Component 2 first, and then, adding component 3. After the reaction for 2 hours at 37° C., […] of a measurement solution consisting of streptavidin-XL665 provided by Cisbio and anti-phosphotyrosine antibody labeled with europium was added to the enzymatic reaction solution and reacted for 1 hour at ambient temperature. […] The measurement values measured at the seven concentrations of the compound were analyzed by using the Prism program (version 5.01, Graphpad Software, Inc.), and IC50 value of the compound was calculated, which is an inhibitory ability indicator.
In general terms: In TR-FRET formats the signal depends on donor and acceptor labels being close together.

The next test addresses EGFR del19 (Homo sapiens (Human), UniProt P00533, DEL746-750). Description: HTRF enzyme assay, EGFR del19. Format: biochemical. The following applies: recombinant enzyme. The protocol: as §1, §2, §3, §4, §5, §6
Another test concerns the target EGFR del19/T790M (Homo sapiens (Human), UniProt P00533, DEL746-750/T790M). Description: HTRF enzyme assay, EGFR del19/T790M. Format: biochemical. The note with it: recombinant enzyme. The protocol: as §1, §2, §3, §4, §5, §6
In another test the target is EGFR del19/T790M/C797S (Homo sapiens, UniProt P00533, C797S/DEL746-750/T790M). The test is described as follows: HTRF enzyme assay, EGFR del19/T790M/C797S. It counts as biochemical. The note with it: HTRF, recombinant enzyme; read-out: EGFR del19/T790M/C797S IC50. The protocol: as §1, §2, §3, §4, §5, §6
Chain of EGFR del19/T790M/C797S (P00533 with tags, fused parts or gaps C797S/DEL746-750/T790M limits assumed): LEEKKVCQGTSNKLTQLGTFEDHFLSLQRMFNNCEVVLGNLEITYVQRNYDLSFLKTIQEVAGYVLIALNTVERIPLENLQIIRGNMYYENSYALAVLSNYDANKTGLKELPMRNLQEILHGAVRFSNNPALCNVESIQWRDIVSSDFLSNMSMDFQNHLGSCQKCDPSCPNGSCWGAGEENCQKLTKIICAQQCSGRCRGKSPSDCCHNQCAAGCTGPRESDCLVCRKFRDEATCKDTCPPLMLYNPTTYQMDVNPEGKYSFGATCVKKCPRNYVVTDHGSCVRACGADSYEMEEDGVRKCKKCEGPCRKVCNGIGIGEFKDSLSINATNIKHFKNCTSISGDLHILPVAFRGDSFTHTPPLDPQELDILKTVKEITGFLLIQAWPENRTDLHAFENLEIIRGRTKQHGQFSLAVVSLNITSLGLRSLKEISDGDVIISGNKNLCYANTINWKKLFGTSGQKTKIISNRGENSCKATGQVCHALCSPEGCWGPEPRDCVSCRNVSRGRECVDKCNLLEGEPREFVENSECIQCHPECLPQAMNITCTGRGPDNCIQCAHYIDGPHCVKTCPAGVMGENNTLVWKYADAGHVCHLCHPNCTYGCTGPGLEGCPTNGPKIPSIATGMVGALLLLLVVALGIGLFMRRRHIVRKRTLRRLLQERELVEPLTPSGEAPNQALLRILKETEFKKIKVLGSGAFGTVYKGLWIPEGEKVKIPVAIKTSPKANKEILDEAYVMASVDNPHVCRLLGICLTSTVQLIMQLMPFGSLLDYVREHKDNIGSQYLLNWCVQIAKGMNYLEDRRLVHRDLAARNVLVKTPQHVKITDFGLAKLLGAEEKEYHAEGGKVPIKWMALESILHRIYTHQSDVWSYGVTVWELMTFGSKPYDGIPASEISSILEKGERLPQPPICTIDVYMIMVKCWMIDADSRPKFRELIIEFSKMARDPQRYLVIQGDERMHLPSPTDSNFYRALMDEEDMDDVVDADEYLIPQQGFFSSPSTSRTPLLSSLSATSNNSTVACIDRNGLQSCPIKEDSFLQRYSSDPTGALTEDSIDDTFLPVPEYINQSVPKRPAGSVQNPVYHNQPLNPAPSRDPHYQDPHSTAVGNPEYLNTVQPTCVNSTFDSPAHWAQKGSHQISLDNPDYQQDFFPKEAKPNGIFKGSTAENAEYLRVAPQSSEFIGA
The next test relates to Ba/F3 EGFR wt. cell line. Description: CellTiter-Glo cell viability, Ba/F3 EGFR wild-type. The following applies: 72 hours. It counts as cell-based. How it is done:
(§7) The measurement of an activity on wild-type and mutation Ba/F3 EGFR cell line of the compound of the present invention was experimented by utilizing the CellTiter-Glo system sold by Promega, as follow. The CellTiter-Glo assay is a method for measuring the ATP present in cells in cell culture conditions to determine the cell viability.
(§8) The analysis of an EGFR inhibitory ability effect of the compound was carried out in accordance with the analysis reaction recipe below.
(§9) After the reaction of 72 hours, the plate treated with the compound was allowed to stand for 30 minutes at ambient temperature, and then, was further treated with 100 μl of the reagent, and was shaked for 10 minutes at ambient temperature. […] The measurement values measured at the eight concentrations of the compound were analyzed by using the Prism program (version 5.01, Graphpad Software, Inc.), and IC50 value of the compound was calculated, which is an inhibitory ability indicator.

The test system of test [1] is Ba/F3 EGFR del19 cell line. The test is described as follows: CellTiter-Glo cell viability, Ba/F3 EGFR del19. The note with it: 72 hours. Format: cell-based. The protocol: as §7, §8, §9
For orientation: ATP-based viability assays read luminescence as a measure of living cells.

Test [2] has as its system Ba/F3 EGFR del19/T790M cell line. The test is described as follows: CellTiter-Glo cell viability, Ba/F3 EGFR del19/T790M. It counts as cell-based. The following applies: CellTiter-Glo, 72 hours, read-out: Ba/F3 EGFR del19/T790M IC50. How it is done:
as §7, §8
(§10) After the reaction of 72 hours, the plate treated with the compound was allowed to stand for 30 minutes at ambient temperature, and then, was further treated with 100 μl of the reagent, and was shaked for 10 minutes at ambient temperature.

Test [3] deals with Ba/F3 EGFR del19/T790M/C797S cell line. Description: CellTiter-Glo cell viability, Ba/F3 EGFR del19/T790M/C797S. It counts as cell-based. The following applies: CellTiter-Glo, 72 hours, read-out: Ba/F3 EGFR del19/T790M/C797S IC50. How it is done:
as §7, §8, §10

Chain of EGFR del19 (P00533 other isoform, or with tags, fused parts or gaps del 1-668/del 746-750 limits assumed): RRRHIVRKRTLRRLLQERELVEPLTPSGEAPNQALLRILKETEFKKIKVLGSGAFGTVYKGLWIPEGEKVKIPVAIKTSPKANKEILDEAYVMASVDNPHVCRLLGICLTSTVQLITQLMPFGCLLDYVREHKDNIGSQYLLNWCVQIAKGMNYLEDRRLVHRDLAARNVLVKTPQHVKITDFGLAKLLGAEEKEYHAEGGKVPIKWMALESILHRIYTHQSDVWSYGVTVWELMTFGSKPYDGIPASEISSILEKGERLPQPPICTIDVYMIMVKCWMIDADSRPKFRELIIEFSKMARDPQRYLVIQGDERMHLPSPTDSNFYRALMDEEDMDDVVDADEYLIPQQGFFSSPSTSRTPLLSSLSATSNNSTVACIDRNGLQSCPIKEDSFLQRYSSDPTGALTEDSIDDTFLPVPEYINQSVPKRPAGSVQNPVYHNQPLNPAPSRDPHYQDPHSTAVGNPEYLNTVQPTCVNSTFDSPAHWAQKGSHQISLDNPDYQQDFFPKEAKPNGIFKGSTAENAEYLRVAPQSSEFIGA
Chain of EGFR del19/T790M (P00533 other isoform, or with tags, fused parts or gaps T790M/del 1-668/del 746-750 limits assumed): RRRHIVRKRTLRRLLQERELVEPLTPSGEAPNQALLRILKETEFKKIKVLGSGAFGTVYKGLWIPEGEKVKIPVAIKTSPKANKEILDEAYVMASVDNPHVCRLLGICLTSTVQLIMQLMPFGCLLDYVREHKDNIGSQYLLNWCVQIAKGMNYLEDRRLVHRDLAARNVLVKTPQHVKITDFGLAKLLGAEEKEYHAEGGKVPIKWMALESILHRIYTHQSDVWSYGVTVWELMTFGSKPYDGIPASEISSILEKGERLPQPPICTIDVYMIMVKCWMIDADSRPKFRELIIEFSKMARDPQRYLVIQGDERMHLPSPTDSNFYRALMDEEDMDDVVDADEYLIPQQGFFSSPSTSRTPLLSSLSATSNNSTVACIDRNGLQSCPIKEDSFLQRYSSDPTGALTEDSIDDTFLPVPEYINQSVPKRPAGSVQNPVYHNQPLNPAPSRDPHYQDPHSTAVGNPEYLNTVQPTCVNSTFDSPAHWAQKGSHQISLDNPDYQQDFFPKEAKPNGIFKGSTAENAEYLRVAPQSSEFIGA
Chain of EGFR wt. (P00533 25-1210): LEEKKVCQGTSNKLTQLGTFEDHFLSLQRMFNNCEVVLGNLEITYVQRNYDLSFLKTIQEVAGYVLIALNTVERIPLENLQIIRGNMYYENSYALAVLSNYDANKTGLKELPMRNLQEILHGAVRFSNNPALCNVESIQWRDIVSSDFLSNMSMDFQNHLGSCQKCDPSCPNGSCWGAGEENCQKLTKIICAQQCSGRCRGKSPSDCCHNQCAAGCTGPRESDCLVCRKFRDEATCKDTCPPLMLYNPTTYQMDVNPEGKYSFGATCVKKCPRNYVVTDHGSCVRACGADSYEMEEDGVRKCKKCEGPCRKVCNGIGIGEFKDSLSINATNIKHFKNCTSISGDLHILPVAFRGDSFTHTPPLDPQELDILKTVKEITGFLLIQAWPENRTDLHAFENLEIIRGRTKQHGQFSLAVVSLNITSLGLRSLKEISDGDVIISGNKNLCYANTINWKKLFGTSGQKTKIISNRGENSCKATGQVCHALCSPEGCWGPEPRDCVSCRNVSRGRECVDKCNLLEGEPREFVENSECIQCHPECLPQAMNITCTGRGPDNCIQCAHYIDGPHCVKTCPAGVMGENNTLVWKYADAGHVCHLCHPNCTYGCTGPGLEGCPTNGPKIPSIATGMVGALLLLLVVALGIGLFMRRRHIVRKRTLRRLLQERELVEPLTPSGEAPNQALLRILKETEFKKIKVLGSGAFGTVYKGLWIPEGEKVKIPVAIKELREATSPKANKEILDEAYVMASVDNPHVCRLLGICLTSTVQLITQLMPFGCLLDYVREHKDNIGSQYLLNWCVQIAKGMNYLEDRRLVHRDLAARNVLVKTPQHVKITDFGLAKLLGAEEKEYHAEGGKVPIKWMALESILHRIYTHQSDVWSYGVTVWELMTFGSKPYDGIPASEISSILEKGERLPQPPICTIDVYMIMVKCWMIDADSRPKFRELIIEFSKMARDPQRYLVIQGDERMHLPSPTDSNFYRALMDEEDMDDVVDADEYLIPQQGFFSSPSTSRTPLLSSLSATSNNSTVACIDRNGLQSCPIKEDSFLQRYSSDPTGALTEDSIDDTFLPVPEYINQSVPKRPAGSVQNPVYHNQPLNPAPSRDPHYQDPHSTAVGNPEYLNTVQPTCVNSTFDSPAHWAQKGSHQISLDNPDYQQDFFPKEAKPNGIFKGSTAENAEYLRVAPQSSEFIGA

Consider `COc1cc(N2CCN(C3CCN(C)CC3)CC2)ccc1Nc1ncc(Cl)c(Nc2ccccc2NS(C)(=O)=O)n1` [Example 25, N-(2-((5-chloro-2-((2-methoxy-4-(4-(1-methylpiperidin-4-yl)piperazin-1-yl)phenyl)amino)pyrimidin-4-yl)amino)phenyl)methanesulfonamide], for which the IC50 on EGFR wt. was 0.3 µM; at EGFR del19 it was 0.0002 µM; on EGFR del19/T790M it was 0.018 µM; on EGFR del19/T790M/C797S, 0.009 µM; in the test with Ba/F3 EGFR wt. cell line, 0.34 µM; in test [1] it was 0.21 µM. In addition, the IC50 in test [2] was found to be 0.78 µM; in test [3] it was 0.027 µM.
